Each compound was assayed against PDE V (Homo sapiens, UniProt O76074) (assay: PDE V inhibition (PDE V IC50)).
Format: biochemical

| Compound | IC50 |
| --- | --- |
| COc1ccc(Cn2c(NC3(CO)CCCC3)nc3c2c(=O)n(C)c(=O)n3CC(C)C)cc1 [Compound 18] | 15 to 100 nM |
| CCn1c(=O)c2c(nc(NC3CCS(=O)(=O)CC3)n2Cc2ccc(OC)c(Br)c2)n(CC)c1=O [Compound 194] | 15 to 100 nM |
| Cn1c(=O)c2c(nc(NC3CCCC3)n2Cc2ccccc2)n(C)c1=O [Compound 15] | 15 to 100 nM |
| CCn1c(=O)c2c(nc(N[C@@H]3CCCC[C@H]3O)n2Cc2ccc(OC)c(Br)c2)n(CCO)c1=O [Compound 185] | 15 to 100 nM |
| COc1ccc(Cn2c(NC3CCCC3)nc3c2c(=O)n(C)c(=O)n3C)cc1 [Compound 32] | 15 to 100 nM |
| COc1ccc(Cn2c(N[C@@H]3CCC[C@@H]3O)nc3c2c(=O)n(C)c(=O)n3CC(C)C)cc1 [Compound 17] | 15 to 100 nM |
| CCn1c(=O)c2c(nc(NC3CCCCC3)n2Cc2ccccc2)n(CCO)c1=O [Compound 101] | 15 to 100 nM |
| COc1ccc(Cn2c(NC3CCCCC3)nc3c2c(=O)n(C)c(=O)n3CC(C)C)cc1 [Compound 31] | 15 to 100 nM |
| COc1ccc(Cn2c(NC3(CO)CC=CC3)nc3c2c(=O)n(C)c(=O)n3C)cc1 [Compound 34] | 10 to 15 nM |
| CCn1c(=O)[nH]c2nc(NC3CCCCC3)n(Cc3ccc(O)cc3)c2c1=O [Compound 94] | 10 to 15 nM |
| Cc1cccc(Cn2c(NC3CCCCC3)nc3c2c(=O)n(C)c(=O)n3C)c1 [Compound 131] | 15 to 100 nM |
| COc1ccc(Cn2c(NC3CCCC3)nc3c2c(=O)n(C)c(=O)n3CC(C)C)cc1 [Compound 30] | 15 to 100 nM |
| CCn1c(=O)c2c(nc(NC3CCCCC3)n2Cc2ccccc2)n(CC(C)C)c1=O [Compound 56] | 15 to 100 nM |
| CCn1c(=O)[nH]c2nc(NC3CCCC3)n(Cc3ccc(OC)cc3)c2c1=O [Compound 93] | 10 to 15 nM |
| COc1ccc(Cn2c(NC3CCCCC3)nc3c2c(=O)n(C)c(=O)n3C)cc1 [Compound 33] | 10 to 15 nM |
| COc1ccc(Cn2c(N[C@@H]3CCc4ccccc43)nc3c2c(=O)n(C)c(=O)n3C)cc1 [Compound 85] | 15 to 100 nM |
| CCn1c(=O)c2c(nc(NC3CCS(=O)(=O)CC3)n2Cc2ccc(OC)c(Cl)c2)n(CC)c1=O [Compound 193] | 15 to 100 nM |
| Cn1c(=O)c2c(nc(NC3CCCCC3)n2Cc2cc3c(cc2Cl)OCO3)n(C)c1=O [Compound 160] | 10 to 15 nM |
| CCn1c(=O)c2c(nc(N[C@@H]3CCC[C@H]3O)n2Cc2ccc(S(N)(=O)=O)cc2)n(CC)c1=O [Compound 126] | 15 to 100 nM |
| CCn1c(=O)c2c(nc(NC3CCCCC3)n2Cc2ccc(OC)c(C)c2)n(CC)c1=O [Compound 166] | 15 to 100 nM |
| CCn1c(=O)c2c(nc(NC3CCCCC3)n2Cc2ccc(C(=O)O)cc2)n(CC)c1=O [Compound 98] | 15 to 100 nM |
| Cn1c(=O)c2c(nc(NC3CCCCC3)n2Cc2cccc(F)c2)n(C)c1=O [Compound 137] | 15 to 100 nM |
| CCn1c(=O)c2c(nc(N[C@@H]3CCC[C@@H]3O)n2Cc2ccccc2)n(CC)c1=O [Compound 14] | 15 to 100 nM |
| CCCn1c(=O)n(CC)c(=O)c2c1nc(NC1CCCCC1)n2Cc1ccccc1F [Compound 173] | 15 to 100 nM |

| Compound | IC50 |
| --- | --- |
| CCn1c(=O)c2c(nc(N[C@H]3CC[C@H](O)CC3)n2Cc2ccc(OC)c(Br)c2)n(CC)c1=O [Compound 125] | 10 to 15 nM |
| CCn1c(=O)c2c(nc(NC3CCCC3O)n2Cc2ccc(OC)cc2)n(CC(C)C)c1=O (centres unmarked) [Compound 40] | 10 to 15 nM |
| CCn1c(=O)c2c(nc(N[C@@H]3CCC[C@H]3O)n2Cc2cc(Br)c3c(c2)CCO3)n(CCO)c1=O [Compound 128] | 15 to 100 nM |
| CCn1c(=O)c2c(nc(NC3CCCC3)n2Cc2ccccc2)n(CC(C)C)c1=O [Compound 55] | 15 to 100 nM |
| CCn1c(=O)c2c(nc(NC3CCCC3)n2Cc2ccc(OC)cc2)n(CC(C)C)c1=O [Compound 38] | 15 to 100 nM |
| Cn1c(=O)[nH]c(=O)c2c1nc(NC1CCCCC1)n2Cc1ccc(O)cc1 [Compound 71] | 15 to 100 nM |
| CCn1c(=O)c2c(nc(NC3CCCCC3)n2Cc2ccc(S(N)(=O)=O)cc2)n(CCO)c1=O [Compound 182] | 15 to 100 nM |
| CCCn1c(=O)n(CC)c(=O)c2c1nc(NC1CCCCC1)n2Cc1ccc(OC)c(C)c1 [Compound 176] | 15 to 100 nM |
| COc1ccc(Cn2c(NC3CCCCC3)nc3c2c(=O)n(C)c(=O)n3C)cc1C [Compound 144] | 10 to 15 nM |
| CCn1c(=O)c2c(nc(NC3CCCCC3)n2Cc2ccc(O)c(C)c2)n(CCO)c1=O [Compound 112] | 10 to 15 nM |
| COc1ccc(Cn2c(NC3CCCCCC3)nc3c2c(=O)n(C)c(=O)n3C)cc1 [Compound 43] | 15 to 100 nM |
| CCn1c(=O)c2c(nc(N[C@@H]3CCC[C@H]3O)n2Cc2ccc(S(N)(=O)=O)c(Cl)c2)n(CC)c1=O [Compound 181] | 15 to 100 nM |
| CCCn1c(=O)n(CC)c(=O)c2c1nc(NC1CCCCC1)n2Cc1ccc(S(C)(=O)=O)cc1 [Compound 121] | 15 to 100 nM |
| CCn1c(=O)c2c(nc(NC3CCCC3O)n2Cc2ccccc2)n(CC(C)C)c1=O (centres unmarked) [Compound 58] | 15 to 100 nM |
| CCn1c(=O)c2c(nc(NC3CCCCC3)n2Cc2ccc(OC)cc2)n(CC(C)C)c1=O [Compound 39] | 10 to 15 nM |
| CCn1c(=O)c2c(nc(NC3(CO)CC=CC3)n2Cc2ccccc2)n(CC(C)C)c1=O [Compound 57] | 15 to 100 nM |
| Cn1c(=O)c2c(nc(NC3CCCCCC3)n2Cc2ccc(O)cc2)n(C)c1=O [Compound 69] | 15 to 100 nM |
| CCn1c(=O)c2c(nc(NC3CCCCC3)n2Cc2ccc(C(F)(F)F)cc2)n(CC(C)C)c1=O [Compound 96] | 15 to 100 nM |
| Cn1c(=O)c2c(nc(NC3CCCCC3)n2Cc2ccccc2)n(C)c1=O [Compound 16] | 15 to 100 nM |
| COc1ccc(Cn2c(NC3CCC3)nc3c2c(=O)n(C)c(=O)n3C)cc1 [Compound 42] | 15 to 100 nM |
| Cn1c(=O)c2c(nc(NC3CC4CCC3C4)n2Cc2ccc(O)cc2)n(C)c1=O (centres unmarked) [Compound 77] | 15 to 100 nM |
| CCn1c(=O)c2c(nc(NC3CCCC3)n2Cc2ccc(OC)cc2)n(C)c1=O [Compound 24] | 10 to 15 nM |
| Cn1c(=O)c2c(nc(NC3CCCCC3)n2Cc2ccc(O)c(Cl)c2)n(C)c1=O [Compound 161] | 10 to 15 nM |

Now from value to compound:

| IC50 | Compound |
| --- | --- |
| 5 to 10 nM | CCn1c(=O)c2c(nc(NC3CCCCC3)n2Cc2ccc(S(N)(=O)=O)c(Br)c2)n(CC)c1=O [Compound 180] |
| 10 to 15 nM | Cn1c(=O)c2c(nc(NC3CCCCC3)n2Cc2ccccc2F)n(C)c1=O [Compound 136] |
| 10 to 15 nM | CCn1c(=O)c2c(nc(N[C@@H]3CCC[C@H]3O)n2Cc2ccc(OC)c(C)c2)n(CCO)c1=O [Compound 111] |
| 5 to 10 nM | CCn1c(=O)c2c(nc(NC3CCCCC3)n2Cc2ccc(C(=O)OC)cc2)n(CC)c1=O [Compound 99] |
| ≤ 5 nM | CCn1c(=O)c2c(nc(NC3CCCCC3)n2Cc2ccc(O)cc2)n(CC(C)C)c1=O [Compound 65] |
| 5 to 10 nM | COc1ccc(Cn2c(=O)c3c(nc(NC4CCCCC4)n3Cc3ccc(OC)cc3)n(C)c2=O)cc1 [Compound 21] |
| 10 to 15 nM | CCn1c(=O)c2c(nc(NC3CCCCC3)n2Cc2ccccc2)n(CC)c1=O [Compound 29] |
| 5 to 10 nM | CCn1c(=O)c2c(nc(NC3CCCC3)n2Cc2ccc(O)cc2)n(CC(C)C)c1=O [Compound 59] |
| ≤ 5 nM | CCn1c(=O)c2c(nc(NC3CCSCC3)n2Cc2ccc(OC)c(Cl)c2)n(CC)c1=O [Compound 197] |
| ≤ 5 nM | CCn1c(=O)c2c(nc(NC3CCOCC3)n2Cc2ccc(S(N)(=O)=O)c(Cl)c2)n(CC)c1=O [Compound 191] |
| 5 to 10 nM | CCCn1c(=O)n(CC)c(=O)c2c1nc(NC1CCCCC1)n2Cc1ccc(OC)c(Cl)c1 [Compound 171] |
| ≤ 5 nM | CCCn1c(=O)n(CC)c(=O)c2c1nc(NC1CCCCC1)n2Cc1cccc(O)c1 [Compound 177] |
| 5 to 10 nM | CCn1c(=O)c2c(nc(N[C@@H]3CCC[C@H]3O)n2Cc2ccc(O)c(Cl)c2)n(CCO)c1=O [Compound 115] |
| 5 to 10 nM | CCCn1c(=O)n(CC)c(=O)c2c1nc(NC1CCCCC1)n2Cc1ccc(O)c(Cl)c1 [Compound 172] |
| 5 to 10 nM | Cn1c(=O)c2c(nc(NC3CCCC3)n2Cc2ccc(O)cc2)n(C)c1=O [Compound 36] |
| 5 to 10 nM | CCn1c(=O)c2c(nc(NC3CCCCC3)n2Cc2ccc(OC)c(C)c2)n(CCO)c1=O [Compound 110] |
| 5 to 10 nM | Cn1c(=O)[nH]c(=O)c2c1nc(NC1CCCC1)n2Cc1ccc(O)cc1 [Compound 68] |

| IC50 | Compound |
| --- | --- |
| ≤ 5 nM | CCn1c(=O)c2c(nc(NC3CCCCC3)n2Cc2ccc(O)cc2)n(CC)c1=O [Compound 64] |
| 5 to 10 nM | COc1ccc(Cn2c(=O)c3c(nc(NC4CCCC4)n3Cc3ccc(OC)cc3)n(C)c2=O)cc1 [Compound 22] |
| ≤ 5 nM | COc1ccc(Cn2c(=O)c3c(nc(NC4(CO)CC=CC4)n3Cc3ccc(OC)cc3)n(C)c2=O)cc1 [Compound 67] |
| 5 to 10 nM | Cc1ccc(Cn2c(NC3CCCCC3)nc3c2c(=O)n(C)c(=O)n3C)cc1 [Compound 132] |
| ≤ 5 nM | CCn1c(=O)c2c(nc(NC3(CO)CC=CC3)n2Cc2ccc(OC)cc2)n(CC)c1=O [Compound 62] |
| ≤ 5 nM | CCn1c(=O)c2c(nc(NC3CCCC3)n2Cc2ccc(O)cc2)n(CC)c1=O [Compound 63] |
| 5 to 10 nM | CCn1c(=O)c2c(nc(NC3CCC(F)(F)CC3)n2Cc2ccc(OC)c(Br)c2)n(CC)c1=O [Compound 199] |
| 5 to 10 nM | CCn1c(=O)c2c(nc(NC3CCCCC3)n2Cc2ccc(OC(C)=O)cc2)n(CC)c1=O [Compound 89] |
| ≤ 5 nM | Cn1c(=O)c2c(nc(NC3CCCCC3)n2Cc2ccc3c(c2)OCO3)n(C)c1=O [Compound 142] |
| ≤ 5 nM | CCn1c(=O)c2c(nc(NC3CCCCC3)n2Cc2ccc(OC)cc2)n(CC)c1=O [Compound 61] |
| ≤ 5 nM | CCn1c(=O)c2c(nc(N[C@@H]3CCC[C@H]3O)n2Cc2ccc(OC)c(Br)c2)n(CCO)c1=O [Compound 114] |
| 5 to 10 nM | Cn1c(=O)c2c(nc(NC3CCC3)n2Cc2ccc(O)cc2)n(C)c1=O [Compound 66] |
| ≤ 5 nM | CCn1c(=O)c2c(nc(NC3CCCCC3)n2Cc2ccc(S(N)(=O)=O)c(Cl)c2)n(CC)c1=O [Compound 179] |
| ≤ 5 nM | CCn1c(=O)c2c(nc(NC3CCSCC3)n2Cc2ccc(OC)c(Br)c2)n(CC)c1=O [Compound 198] |
| 5 to 10 nM | CCn1c(=O)c2c(nc(NC3CCCCC3)n2Cc2ccc(S(N)(=O)=O)c(Cl)c2)n(CCO)c1=O [Compound 183] |
| ≤ 5 nM | CCn1c(=O)c2c(nc(NC3CCCC3)n2Cc2ccc(OC)cc2)n(CC)c1=O [Compound 60] |

Reference: patent publication US20070037831A1, “Methods of using PDE 5 inhibitors for the treatment of congestive heart failure” (priority 2004, published 2007)
